{"source": "PubChem BioAssay (NCI)", "assay_in_all_cases": "NCI tumour cell line growth inhibition, 48 h", "key": {"MDA-MB-231 breast": {"test_system": "MDA-MB-231 breast"}, "IGROV1 ovarian": {"test_system": "IGROV1 ovarian"}, "SF-268 CNS": {"test_system": "SF-268 CNS"}, "HCT-15 colon": {"test_system": "HCT-15 colon"}, "T-47D breast": {"test_system": "T-47D breast"}, "MALME-3M melanoma": {"test_system": "MALME-3M melanoma"}, "A498 renal": {"test_system": "A498 renal"}, "MCF7 breast": {"test_system": "MCF7 breast"}, "MDA-MB-435": {"test_system": "MDA-MB-435"}, "SK-MEL-28 melanoma": {"test_system": "SK-MEL-28 melanoma"}, "DMS 114 small cell lung": {"test_system": "DMS 114 small cell lung"}, "KM12 colon": {"test_system": "KM12 colon"}, "CCRF-CEM leukemia": {"test_system": "CCRF-CEM leukemia"}, "K-562 leukemia": {"test_system": "K-562 leukemia"}, "BT-549 breast": {"test_system": "BT-549 breast"}, "COLO 205 colon": {"test_system": "COLO 205 colon"}, "M19-MEL melanoma": {"test_system": "M19-MEL melanoma"}, "P388 leukemia": {"test_system": "P388 leukemia"}, "UACC-257 melanoma": {"test_system": "UACC-257 melanoma"}, "RXF 393 renal": {"test_system": "RXF 393 renal"}, "HT29 colon": {"test_system": "HT29 colon"}, "MDA-N": {"test_system": "MDA-N"}, "XF 498 CNS": {"test_system": "XF 498 CNS"}, "OVCAR-5 ovarian": {"test_system": "OVCAR-5 ovarian"}, "SW-620 colon": {"test_system": "SW-620 colon"}, "RPMI-8226 leukemia": {"test_system": "RPMI-8226 leukemia"}, "NCI-H23 lung": {"test_system": "NCI-H23 lung"}, "HOP-18 NSCLC": {"test_system": "HOP-18 NSCLC"}, "U251 CNS": {"test_system": "U251 CNS"}, "UACC-62 melanoma": {"test_system": "UACC-62 melanoma"}, "NCI-H522 lung": {"test_system": "NCI-H522 lung"}, "DMS 273 small cell lung": {"test_system": "DMS 273 small cell lung"}, "HCC-2998 colon": {"test_system": "HCC-2998 colon"}, "SR leukemia": {"test_system": "SR leukemia"}, "P388/ADR leukemia": {"test_system": "P388/ADR leukemia"}, "SF-539 CNS": {"test_system": "SF-539 CNS"}, "DLD-1 colon": {"test_system": "DLD-1 colon"}, "A549 NSCLC": {"test_system": "A549 NSCLC"}, "786-0 renal": {"test_system": "786-0 renal"}, "M14 melanoma": {"test_system": "M14 melanoma"}, "NCI-H460 lung": {"test_system": "NCI-H460 lung"}, "SNB-78 CNS": {"test_system": "SNB-78 CNS"}, "HS 578T breast": {"test_system": "HS 578T breast"}, "KM20L2 colon": {"test_system": "KM20L2 colon"}, "SNB-19 CNS": {"test_system": "SNB-19 CNS"}, "HCT-116 colon": {"test_system": "HCT-116 colon"}, "HL-60(TB) leukemia": {"test_system": "HL-60(TB) leukemia"}, "SN12K1 renal": {"test_system": "SN12K1 renal"}, "EKVX NSCLC": {"test_system": "EKVX NSCLC"}, "SK-MEL-5 melanoma": {"test_system": "SK-MEL-5 melanoma"}}, "note": "Several values for one entry are separate records, joined by “and”; a condition that tells them apart may be missing. Equal values may be shown once.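 Cultured in 96-well plates, cells were exposed to test compound for 48 hours across five concentrations. Here, GI50 denotes the concentration required for 50% inhibition of growth. TGI marks complete inhibition of growth.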"}
{"compound": "CN1N=C(N)c2cn(C3OC(COP(=O)(O)O)C(O)C3O)c3ncnc1c23", "note": "(configuration not stated)", "values": [{"measurement": "TGI", "setting": "MDA-MB-231 breast", "result": "163 µM and 259 µM"}, {"measurement": "TGI", "setting": "IGROV1 ovarian", "result": "500 µM and 1650 µM and 918 µM"}, {"measurement": "TGI", "setting": "SF-268 CNS", "result": "0.5 mM and 1.65 mM and > 4.85 mM"}, {"measurement": "TGI", "setting": "HCT-15 colon", "result": "0.5 mM and 1.65 mM and 2.63 mM"}, {"measurement": "TGI", "setting": "T-47D breast", "result": "327 µM and 1650 µM and 269 µM"}, {"measurement": "TGI", "setting": "MALME-3M melanoma", "result": "0.305 mM and 1.65 mM and 2.09 mM"}, {"measurement": "GI50", "setting": "A498 renal", "result": "68.5 µM and 40.6 µM"}, {"measurement": "TGI", "setting": "A498 renal", "result": "391 µM and 1650 µM and 713 µM"}, {"measurement": "TGI", "setting": "MCF7 breast", "result": "0.5 mM and 1.65 mM and 3.65 mM"}, {"measurement": "TGI", "setting": "MDA-MB-435", "result": "363 µM and 671 µM"}, {"measurement": "GI50", "setting": "SK-MEL-28 melanoma", "result": "118 µM and 312 µM"}, {"measurement": "TGI", "setting": "SK-MEL-28 melanoma", "result": "0.5 mM and 1.65 mM and 2.42 mM"}, {"measurement": "TGI", "setting": "DMS 114 small cell lung", "result": "> 4.3", "unit": "mM"}, {"measurement": "TGI", "setting": "KM12 colon", "result": "0.5 mM and > 1.65 mM and > 5 mM"}, {"measurement": "TGI", "setting": "CCRF-CEM leukemia", "result": "0.5 mM and 1.65 mM and > 5 mM"}, {"measurement": "TGI", "setting": "K-562 leukemia", "result": "0.5 mM and > 1.65 mM and > 5 mM"}, {"measurement": "GI50", "setting": "BT-549 breast", "result": "20.1 µM and 4.86 µM"}, {"measurement": "TGI", "setting": "BT-549 breast", "result": "135 µM and 626 µM and 114 µM"}, {"measurement": "TGI", "setting": "COLO 205 colon", "result": "0.499 mM and > 1.65 mM and 2.17 mM"}, {"measurement": "TGI", "setting": "M19-MEL melanoma", "result": "> 4.22", "unit": "mM"}, {"measurement": "TGI", "setting": "P388 leukemia", "result": 7.87, "unit": "µM"}, {"measurement": "TGI", "setting": "UACC-257 melanoma", "result": "0.5 mM and 1.65 mM and 4.66 mM"}, {"measurement": "GI50", "setting": "RXF 393 renal", "result": 41.9, "unit": "µM"}, {"measurement": "TGI", "setting": "RXF 393 renal", "result": "236 µM and 462 µM and 460 µM"}, {"measurement": "TGI", "setting": "HT29 colon", "result": "0.5 mM and 1.65 mM and > 4.63 mM"}, {"measurement": "GI50", "setting": "MDA-N", "result": 25.2, "unit": "µM"}, {"measurement": "TGI", "setting": "MDA-N", "result": "390 µM and > 1530 µM"}, {"measurement": "TGI", "setting": "XF 498 CNS", "result": 44.9, "unit": "µM"}, {"measurement": "TGI", "setting": "OVCAR-5 ovarian", "result": "207 µM and 1650 µM and 475 µM"}, {"measurement": "TGI", "setting": "SW-620 colon", "result": "0.5 mM and > 1.65 mM and > 4.13 mM"}, {"measurement": "GI50", "setting": "RPMI-8226 leukemia", "result": 143, "unit": "µM"}, {"measurement": "TGI", "setting": "RPMI-8226 leukemia", "result": "500 µM and > 4750 µM"}, {"measurement": "TGI", "setting": "NCI-H23 lung", "result": "0.5 mM and 1.65 mM and 4.18 mM"}, {"measurement": "TGI", "setting": "HOP-18 NSCLC", "result": 333, "unit": "µM"}, {"measurement": "TGI", "setting": "U251 CNS", "result": "0.5 mM and 1.65 mM and > 5 mM"}, {"measurement": "GI50", "setting": "UACC-62 melanoma", "result": "22.6 µM and 96.1 µM"}, {"measurement": "TGI", "setting": "UACC-62 melanoma", "result": "0.29 mM and 1.65 mM and 1.88 mM"}, {"measurement": "TGI", "setting": "NCI-H522 lung", "result": "0.5 mM and > 1.65 mM and > 5 mM"}, {"measurement": "TGI", "setting": "DMS 273 small cell lung", "result": "> 5", "unit": "mM"}, {"measurement": "TGI", "setting": "HCC-2998 colon", "result": "0.5 mM and 1.65 mM and > 4.83 mM"}, {"measurement": "TGI", "setting": "SR leukemia", "result": "0.5 mM and > 1.65 mM and > 5 mM"}, {"measurement": "TGI", "setting": "P388/ADR leukemia", "result": 2940, "unit": "nM"}, {"measurement": "TGI", "setting": "SF-539 CNS", "result": "162 µM and 807 µM and 208 µM"}, {"measurement": "TGI", "setting": "DLD-1 colon", "result": 617, "unit": "µM"}, {"measurement": "TGI", "setting": "A549 NSCLC", "result": "0.5 mM and 1.65 mM and > 4.78 mM"}, {"measurement": "TGI", "setting": "786-0 renal", "result": "0.5 mM and 1.65 mM and > 3.51 mM"}, {"measurement": "TGI", "setting": "M14 melanoma", "result": "0.5 mM and 1.65 mM and 1.67 mM"}, {"measurement": "TGI", "setting": "NCI-H460 lung", "result": "0.5 mM and > 1.65 mM and 3.46 mM"}, {"measurement": "TGI", "setting": "SNB-78 CNS", "result": 2.91, "unit": "mM"}, {"measurement": "TGI", "setting": "HS 578T breast", "result": "232 µM and 341 µM and 144 µM"}, {"measurement": "TGI", "setting": "KM20L2 colon", "result": "> 4.37", "unit": "mM"}, {"measurement": "TGI", "setting": "SNB-19 CNS", "result": "0.455 mM and 1.65 mM and 3.17 mM"}, {"measurement": "TGI", "setting": "HCT-116 colon", "result": "0.468 mM and 1.65 mM and > 4.54 mM"}, {"measurement": "TGI", "setting": "HL-60(TB) leukemia", "result": "114 µM and 123 µM and 116 µM"}, {"measurement": "TGI", "setting": "SN12K1 renal", "result": "> 5", "unit": "mM"}, {"measurement": "TGI", "setting": "EKVX NSCLC", "result": "500 µM and 1650 µM and 360 µM"}, {"measurement": "TGI", "setting": "SK-MEL-5 melanoma", "result": "0.5 mM and > 1.65 mM and > 4.39 mM"}]}
